“Also recorded” adds a separate entry of the source. Where two headings read alike, the source gives them in different places.
How the values were obtained:
MCF-7 [1] = test: IC50 and LC50 of ATA at 48 h; type: cell-based; conditions: Homo sapiens, MCF7, MCF-7 breast cancer
MDA-MB-435 = test: IC50 and LC50 of ATA at 48 h; type: cell-based; conditions: Homo sapiens, MDA-MB-435 melanoma
HL-60 = test: IC50 and LC50 of ATA at 48 h; type: cell-based; conditions: Homo sapiens, HL-60 leukemia
MCF-7 cells = test: Combinatorial effect of ATA with paclitaxel, MTT assay; type: cell-based; conditions: Homo sapiens, read-out: cell growth inhibition rate
Protocol: The effect was determined by measuring the rates of cell growth inhibition using MTT assay. (* p<0.01, compared with cells treated with either paclitaxel alone or ATA alone).
The inventors of the present invention have shown for the first time that ATA can increase the cytotoxic effect of paclitaxel. In the tests (FIG. 16) with five concentrations of ATA at 10, 5, 2.5, 1.25, 0.625 μM and five concentrations of paclitaxel at 1000, 100, 10, 1, 0.1 nM were used.

[2] = system: xenografted tumors derived from human melanoma MDA-MB-435 cells; test: Xenografted tumors in nude mice; type: in vivo; conditions: 30 mg/kg, 3×/week intraperitoneal, four weeks
Protocol: ATA (▴ 30 mg/kg), etoposide (▪ ETS, 20 mg/kg) and vehicle control (◯) were injected into mice 3×/week via intraperitoneal injection. Average tumor size (A) and mice body weight (B) were measured from five mice.
The anti-tumour effect of ATA was examined in nude mice (FIG. 13 and FIG. 14) carrying solid tumours generated by injecting human melanoma MDA-MB-435 cells into the mice subcutaneously. The tumour size and mouse body weight were monitored over a period of four weeks.

HeLa cells = test: ATA-induced cell death by cell counting under a microscope; type: cell-based; conditions: 10 μM or 20 μM ATA, 24 h or 48 h, YFP-Bcl-2 transfected HeLa
Protocol: HeLa cells were treated with 10 μM ATA for 12, 24, 36, and 48 h. The β-tubulin protein was probed as a loading control. […] HeLa cells were pre-treated with 2 μM pan-caspase inhibitor (z-VAD-fmk) for 2 h before ATA addition. Then 10 μM or 20 μM ATA were added. After 24 h and 48 h treatment, the number of died cells was counted under a microscope. (* p<0.01, compared with cells treated with ATA only). Control: cells without any treatment.
Overexpression of Bcl-2 inhibited ATA-induced cell death. HeLa cells transfected with either yellow fluorescent protein (YFP) (vector control) or YFP-Bcl-2 (Bcl-2) were treated with ATA at 10 or 20 μM. The percentage of cell death from YFP-positive cells was determined by cell counting under a fluorescence microscope. (* p<0.01, compared with vector control groups).
The inventors of the present invention have shown for the first time that ATA can activate the apoptotic pathway in cancer cells. […]
HeLa cells transfected with YFP-Bcl-2 or YFP only were treated with 10 μM or 20 μM ATA. After 24 h or 48 h treatment, the percentage of cell death in each sample was calculated by counting the numbers of fluorescence-positive cells either live (attached with a normal cell morphology) or dead (detached with a shrunk morphology) under a fluorescence microscope. […]

ROS in MDA-MB-435 cells = test: ROS generation and its prevention by PG; type: cell-based, human; conditions: MDA-MB-435 cells
Protocol: (A) PG prevented ATA-induced cell death. Three concentrations of PG were tested for their protective effects on ATA-induced cell death. The cell viability was measured by SRB assay. (* p<0.01). (B) PG protected ROS generation caused by ATA treatment. […] All the experiments were performed at least three times. The results presented in this figure are the average of three experiments. Error bar represents standard deviation. Scale bar=20 μm.
It was further tested, whether PG could prevent ROS generation after ATA treatment.

[3] = system: HER2 protein in BT474 cells; test: HER2 protein level by Western blotting; type: cell-based, human; conditions: 6 μM ATA or 1 μM fulvestrant
Protocol: (§1) Cells were treated with 6 μM ATA or 1 μM fulvestrant for indicated times and analyzed by Western blotting.

ERα in BT474 cells = target: T1, ERα in BT474 cells (Homo sapiens, UniProt P03372); test: ERα protein level by Western blotting; type: cell-based; conditions: 6 μM ATA or 1 μM fulvestrant
T1 construct: endogenous in cells; host or cells: BT474 human breast cancer cells
T1 sequence (P03372 whole entry): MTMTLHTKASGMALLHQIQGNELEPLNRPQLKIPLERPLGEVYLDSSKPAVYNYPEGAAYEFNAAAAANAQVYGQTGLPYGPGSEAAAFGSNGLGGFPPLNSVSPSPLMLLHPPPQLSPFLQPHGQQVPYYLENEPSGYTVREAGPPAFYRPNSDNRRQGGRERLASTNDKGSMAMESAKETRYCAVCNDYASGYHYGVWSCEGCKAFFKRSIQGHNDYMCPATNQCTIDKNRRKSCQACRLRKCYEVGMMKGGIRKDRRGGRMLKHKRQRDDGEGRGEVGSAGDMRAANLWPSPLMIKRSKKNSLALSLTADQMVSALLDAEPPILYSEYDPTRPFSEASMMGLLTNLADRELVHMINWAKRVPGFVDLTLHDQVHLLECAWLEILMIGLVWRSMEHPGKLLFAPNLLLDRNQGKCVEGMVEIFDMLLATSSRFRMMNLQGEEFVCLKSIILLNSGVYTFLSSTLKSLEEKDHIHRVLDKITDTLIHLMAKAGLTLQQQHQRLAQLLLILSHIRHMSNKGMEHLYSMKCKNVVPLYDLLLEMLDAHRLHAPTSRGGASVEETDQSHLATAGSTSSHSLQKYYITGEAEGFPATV
Protocol: as §1

[4] = system: GREB1 mRNA in MCF-7 cells; test: Real-time PCR of GREB1 mRNA level; conditions: for GREB1 mRNA level, fold of the control: 100 pM estrogen plus 6 μM ATA, charcoal-stripped medium
Protocol: In order to do so, the mRNA level of a non-ER regulated gene GAPDH was measured and used as a reference. MCF-7 cells cultured in the charcoal-stripped medium were used as a control.

MCF-7 [5] = test: Growth inhibition at 72 h by MTT assay

For `CC(=O)Oc1c(OC(C)=O)c2c(C)coc2c2ccc3c(c12)CCCC3(C)C` [ATA, 1,6,6-trimethyl-8,9-dihydro-10,11-diacetoxyl-7H-naphtho[1,2-g][1]benzofuran], the CC50 (MCF-7 [1]) was 7.64 ± 0.3 µM, the IC50 (MCF-7 [1]) was 1390 ± 640 nM and the CC50 (MDA-MB-435) was 2740 ± 510 nM. For the same compound, the IC50 (MDA-MB-435) was 550 ± 150 nM, the CC50 (HL-60) was 8.53 ± 0.2 µM and the IC50 (HL-60) was 2980 ± 370 nM. For the same compound, the inhibition at 2.5 µM (MCF-7 cells; MCF7, 2.5 μM ATA in combination with paclitaxel 1 nM) was ~89%, the inhibition at 2.5 µM (MCF-7 cells; MCF7, ATA alone at 2.5 μM) was 71% and the “average body weight versus control mice” value [2] was “did not significantly decrease”. The tumour growth [2] was “significant inhibition on tumour growth”, the “percentage of cell death in Bcl-2 over expressing cells versus normal Bcl-2 level” value (HeLa cells) was “significantly lower” and the “time of maximum ROS level after ATA addition” value (ROS in MDA-MB-435 cells) was 2 h. For the same compound, the “level of HER2 protein” value [3] was “can reduce the level of HER2 protein; also recorded: reduced the level of ERα and HER2”, the “level of ERα” value (ERα in BT474 cells) was “reduced the level of ERα and HER2” and the “GREB1 mRNA level, fold of the control” value ([4]; 4 h) was 6.4 fold. The “GREB1 mRNA level, fold of the control” value ([4]; 12 h) was 7.9 fold, the “GREB1 level of the control” value ([4]; 100 pM estrogen plus 6 μM compound, 24 h, normal medium) was “about 50%” and the IC50 (MCF-7 [5]; Homo sapiens, MCF7, 72 h) was 1480 ± 240 nM. The inhibition at 3.13 µM (MCF-7 [5]; Homo sapiens, MCF7, 72 h, read-out: growth inhibition rate) was 94.7%, the “IC50 ratio of tamoxifen/ATA” value (MCF-7 [5]; MCF-7 (ER+), 72 h) was 6.8 and the “higher growth inhibition rate than tamoxifen” value (MCF-7 [5]; MCF-7, three tested drug concentrations, 72 h, MTT) was 57-74%. For the same compound, the “less ATA needed than tamoxifen to inhibit 50% of ER-positive cell growth” value (MCF-7 [5]; two ER-positive breast cancer cell lines, 72 h) was 6.7 fold.

Source: patent US9226912B2, “Acetyltanshinone IIA (ATA) as anticancer agent” (Nanyang Technological University, priority 2011, dated 2016)
